Results as given in US20120121692A1, “COMPOUNDS AND COMPOSITIONS COMPRISING CDK INHIBITORS AND METHODS FOR TREATING CANCER” (SHANDONG UNIVERSITY, priority 2009, published 2012).
pIC50: −log10 of the molar value. Read-outs that look alike come from different tables or passages of the source.

Columns and labels:
HCT116 cells = assay: MTT cytotoxicity screening, human colon cancer cell line HCT116; format: cell-based
Description: Human colon cancer cell line HCT116 can be used for the preliminary cytotoxicity screening of the disclosed compounds as disclosed by Mosmann, T., “Rapid colorimetric assay for cellular growth and survival: application to proliferation and cytotoxicity assays.” J. Immunol. Methods, (1983) 65(1-2): p. 55-63 referred to herein further as the “MTT test” which is incorporated herein by reference in its entirety.
The disclosure of Mosmann recites the following. “MTT 93-(4,5-dimethylthirazol-2-yl)-2,5-diphenyl tetrazolium bromide; Sigman catalog no. M2128) was dissolved in PBS at 5 mg/ml and filtered to sterilize and remove a small amount of insoluble residue present in some batches of MTT. At the times indicated below, stock MTT solution (10 ml per 100 ml) was added to all wells of an assay, and plates were incubated at 37° C. for 4 h. Acid-siopropanol (100 ml of 0.04 N HCl in isopropanol) was added to all wells and mixed thoroughly to dissolve the dark blue crystals. After a few minutes at room temperature to ensure that all crystals were dissolved, the plates were read o a Dynatech MR580Microelisa reader, using a test wavelength of 570 nm, a reference wavelength of 630 nm, and a calibration setting of 1.99 (or 1.0 if the samples were strongly colored). Plates were normally read within 1 h of adding the isopropanol.
“Our final procedure was to add 0.01 ml MTT (5 mg/ml in phosphate-buffered saline) to 0.1 ml cells in growth medium. After 4 h at 37° C. for MTT cleavage, the formazan product was solublilized by the addition of 0.1 ml 0.04 N HCl in isopropanol. Optical density was measured on a Dynatech MR 580 plate reader, using a reference wavelength of 630 nm and a test wavelength of 570 nm.” 3-(4,5-Dimethylthiazol-2-yl)-2,5-diphenyltetrazolium bromide, a tetrazole, can pass through cellular membrane to enter into cells. This tetrazole may be reduced to the purple formazan in the mitochondria of living cells, which can diffuse out to form crystals. This crystal can be dissolved in the dimethyl sulfoxide to form a colored solution. The absorbance of this colored solution can be quantified by measuring at certain wavelength (490 nm) using a spectrophotometer. The quantity of the formazan crystal is proportional to the number of living cells.
As used herein, cells were cultured in McCoy's 5A medium supplemented with 10% heat-inactivated Fetal Bovine Serum (FBS) and 5% Penicillin/Streptomycin solution. McCoy's 5A, 1× (Iwakata & Grace modified) medium with L-Glutamine, DPBS, 1× w/o Ca and Mg, Penicillin/Streptomycin solution, Trypsin EDTA, 1× and PBS, 1× w/o Ca and Mg were purchased from Mediatech, Inc. (USA). FBS was purchased from Hyclone (USA).
The cytotoxicity of the compounds was estimated using the MTT assay. A 96-well plate was seeded with 100 μl medium containing HCT116 cells in suspension at a density of 2.5×10^4 cells/ml. After 24 hours of incubation, the cells were treated with the compounds, which were dissolved in DMSO (dimethyl sulfoxide) as stock solutions and diluted to final concentrations of 100 μM, 50 μM, 25 μM, 12.5 μM, 6.25 μM & 1 μM (for compounds tested in the micromolar concentrations) and 10 μM, 1 μM, 500 nM, 250 nM, 125 nM & 62.5 nM (for compounds tested in the nanomolar concentration range) using medium containing 0.1% DMSO. The final concentration of DMSO in the culture medium was maintained at 0.1%-0.001% (v/v). After 48 hrs incubation in the presence of test compounds, the spent medium was removed and the wells were washed twice with 100 μL of PBS solution. 100 μL of fresh medium and 10 μL of MTT (5 mg/ml in PBS) was added to the wells and incubated at 37° C. in dark for 4 hrs. The formazan product was dissolved by adding 100 μL of 100% DMSO after removing the medium from each well and was stabilized by adding 12.5 μL of Sorensen's glycine buffer to each well. […]

[1] = Homo sapiens, HCT-116, 48 hrs incubation, absorbance 490 nm, primary screening, read-out: IC50

In the case of `COc1cc(OC)c2c(=O)cc(-c3ccccc3)oc2c1C1=CCN(C)CC1` [Compound F1, 5,7-Dimethoxy-8-(1-methyl-1,2,3,6-tetrahydropyridin-4-yl)-2-phenyl-4H-chromen-4-one], the pIC50 (HCT116 cells; [1]) was 4.68.
In the case of `COc1cc(OC)c(C2=CCNCC2)c(O)c1C(=O)/C=C/c1ccc(C)cc1` [Compound B9, (E)-1-(2-hydroxy-4,6-dimethoxy-3-(1,2,3,6-tetrahydropyridine-4-yl)phenyl)-3-(4-methylphenyl)-2-propylene-1-one], the melting point was 98 to 100 °C and the pIC50 (HCT116 cells; [1]) was 5.40.
In the case of `COc1ccc(/C=C/C(=O)c2c(OC)cc(OC)c(C3=CCN(C)CC3)c2O)c(OC)c1OC` [Compound A16, (E)-1-(2-hydroxy-4,6-dimethoxy-3-(1-methyl-1,2,3,6-tetrahydropyridine-4-yl)phenyl)-3-(2,3-4-trimethoxyphenyl)-2-propylene-1-one], the melting point was 145 to 147 °C and the pIC50 (HCT116 cells; [1]) was 5.48.
`COc1cc(OC)c(C2=CCNCC2)c(O)c1C(=O)/C=C/c1ccccc1[N+](=O)[O-]` [Compound B3, (E)-1-(2-hydroxy-4,6-dimethoxy-3-(1,2,3,6-tetrahydropyridine-4-yl)phenyl)-3-(2-nitrophenyl)-2-propylene-1-one] gave a melting point of 128 to 130 °C and a pIC50 (HCT116 cells; [1]) of 5.25.
In the case of `COc1cc(-c2cc(=O)c3c(OC)cc(OC)c(C4=CCN(C)CC4)c3o2)cc(OC)c1OC` [Compound F8, 5,7-dimethoxy-8-(1-methyl-1,2,3,6-tetrahydropyridin-4-yl)-2-(3,4,5-trimethoxy-phenyl)-4H-chromen-4-one], the melting point was 211 to 212 °C and the pIC50 (HCT116 cells; [1]) was 4.59.
Compound `COc1cc(OC)c(C2=CCN(C)CC2)c(O)c1C(=O)/C=C/c1ccccc1[N+](=O)[O-]` [Compound A3, (E)-1-(2-hydroxy-4,6-dimethoxy-3-(1-methyl-1,2,3,6-tetrahydropyridine-4-yl)phenyl)-3-(2-nitrophenyl)-2-propylene-1-one] has a melting point of 149 to 151 °C and a pIC50 (HCT116 cells; [1]) of 4.75.
In the case of `COc1cc(OC)c(C2=CCNCC2)c(O)c1C(=O)/C=C/c1cccc(C)c1` [Compound B5, (E)-1-(2-hydroxy-4,6-dimethoxy-3-(1,2,3,6-tetrahydropyridine-4-yl)phenyl)-3-(3-methylphenyl)-2-propylene-1-one], the melting point was 95 to 96 °C and the pIC50 (HCT116 cells; [1]) was 5.21.
For `COc1cc(OC)c(C2=CCNCC2)c(O)c1C(=O)/C=C/c1ccc(C#N)cc1` [Compound B15, (E)-3-(4-cyanophenyl)-1-(2-hydroxy-4,6-dimethoxy-3-(1,2,3,6-tetrahydropyridine-4-yl)phenyl)-2-propylene-1-one], the melting point was 135 to 136 °C and the pIC50 (HCT116 cells; [1]) was 5.14.
`COc1cc(OC)c(C(=O)/C=C/c2cccc(C)c2)c(O)c1CN1CCCCC1` [Compound C5] showed a melting point of 113 to 114 °C.
Compound `COc1cccc(/C=C/C(=O)c2c(OC)cc(OC)c(C3=CCNCC3)c2O)c1` [Compound B6, (E)-1-(2-hydroxy-4,6-dimethoxy-3-(1,2,3,6-tetrahydropyridine-4-yl)phenyl)-3-(3-methoxyphenyl)-2-propylene-1-one] has a melting point of 99 to 100 °C and a pIC50 (HCT116 cells; [1]) of 5.51.
For `COc1cc(OC)c(C2=CCNCC2)c(O)c1C(=O)/C=C/c1cccc([N+](=O)[O-])c1` [Compound B8, (E)-1-(2-hydroxy-4,6-dimethoxy-3-(1,2,3,6-tetrahydropyridine-4-yl)phenyl)-3-(3-nitrophenyl)-2-propylene-1-one], the melting point was 199 to 200 °C and the pIC50 (HCT116 cells; [1]) was 5.39.
With `COc1cc(OC)c(C(=O)/C=C/c2cc(OC)c(OC)c(OC)c2)c(O)c1CN1CCOCC1` [Compound D8, (E)-3-(3,4,5-trimethoxyphenyl)-1-(2-hydroxy-4,6-dimethoxy-3-(morpholinemethyl)-phenyl)-2-propylene-1-one] the melting point was 169 to 170 °C.
`COc1cc(OC)c(C2=CCN(C)CC2)c(O)c1C(=O)/C=C/c1ccccc1Cl` [Compound A2, (E)-3-(2-chlorophenyl)-1-(2-hydroxy-4,6-dimethoxy-3-(1-methyl-1,2,3,6-tetrahydropyridine-4-yl)phenyl)-2-propylene-1-one] showed a melting point of 184 to 185 °C and a pIC50 (HCT116 cells; [1]) of 4.55.
`COc1ccc(-c2cc(=O)c3c(O)cc(O)c(C4=CCN(C)CC4)c3o2)cc1` [Compound G4, 5,7-hydroxy-8-(1-methyl-1,2,3,6-tetrahydropyridin-4-yl)-2-(4-methoxyphenyl)-4H-chromen-4-one] showed a melting point of 190 to 191 °C and a pIC50 (HCT116 cells; [1]) of 5.50.
In the case of `COc1cc(OC)c(C(=O)/C=C/c2ccc(C)cc2)c(O)c1CN1CCCCC1` [Compound C1, (E)-1-(2-hydroxy-4,6-dimethoxy-3-(piperidin-1-ylmethyl)phenyl)-3-(4-methylphenyl)-2-propylene-1-one], the pIC50 (HCT116 cells; [1]) was 5.25.
`COc1cc(OC)c(C(=O)/C=C/c2cccc(Cl)c2)c(O)c1CN1CCCCC1` [Compound C4] showed a melting point of 134 to 135 °C and a pIC50 (HCT116 cells; [1]) of 5.41.
In the case of `COc1ccc(-c2cc(=O)c3c(OC)cc(OC)c(C4=CCN(C)CC4)c3o2)cc1` [Compound F4, 5,7-dimethoxy-8-(1-methyl-1,2,3,6-tetrahydropyridin-4-yl)-2-(4-methoxyphenyl)-4H-chromen-4-one], the melting point was 179 to 181 °C and the pIC50 (HCT116 cells; [1]) was 4.76.
In the case of `COc1ccc(-c2cc(=O)c3c(OC)cc(OC)c(C4=CCN(C)CC4)c3o2)c(OC)c1OC` [Compound F7, 5,7-dimethoxy-8-(1-methyl-1,2,3,6-tetrahydropyridin-4-yl)-2-(2,3,4-trimethoxy-phenyl)-4H-chromen-4-one], the melting point was 209 to 210 °C and the pIC50 (HCT116 cells; [1]) was 5.04.
With `COc1cc(OC)c(C2=CCN(C)CC2)c(O)c1C(=O)/C=C/c1ccc(O)cc1` [Compound A11, (E)-1-(2-hydroxy-4,6-dimethoxy-3-(1-methyl-1,2,3,6-tetrahydropyridine-4-yl)phenyl)-3-(4-hydroxyphenyl)-2-propylene-1-one] the melting point was 98 to 100 °C and the pIC50 (HCT116 cells; [1]) was 4.05.
Compound `COc1cc(OC)c(C(=O)/C=C/c2ccc(Br)cc2)c(O)c1CN1CCCCC1` [Compound C6] has a melting point of 99 to 100 °C.
For `COc1cc(OC)c(C2=CCN(C)CC2)c(O)c1C(=O)/C=C/c1ccccc1` [Compound A1, (E)-1-(2-Hydroxy-4,6-dimethoxy-3-(1-methyl-1,2,3,6-tetrahydropyridine-4-yl)phenyl)-3-phenylprop-2-en-1-one], the pIC50 (HCT116 cells; [1]) was 5.00.
“5,7-dimethoxy-8-(1-methyl-1,2,3,6-tetrahydropyridin-4-yl)-2-(3-methylphenyl)-4H-chromen-4-one [Compound F2]” showed a pIC50 (HCT116 cells; 48 hrs incubation, absorbance 490 nm, primary screening, read-out: IC50) of 4.69.
Work on `COc1cc(OC)c(C(=O)/C=C/c2cccc(C)c2)c(O)c1CN1CCOCC1` [Compound D7, (E)-3-(3-methylphenyl)-1-(2-hydroxy-4,6-dimethoxy-3-(morpholinemethyl)-phenyl)-2-propylene-1-one] yielded a melting point of 158 to 159 °C.
`COc1cccc(/C=C/C(=O)c2c(OC)cc(OC)c(CN3CCCCC3)c2O)c1` [Compound C3, (E)-1-(2-hydroxy-4,6-dimethoxy-3-(piperidin-1-ylmethyl)phenyl)-3-(3-methoxyphenyl)-2-propylene-1-one] gave a pIC50 (HCT116 cells; [1]) of 5.55.
With `CN1CC=C(c2c(O)cc(O)c3c(=O)cc(-c4ccccc4)oc23)CC1` [Compound G1, 5,7-hydroxy-8-(1-methyl-1,2,3,6-tetrahydropyridin-4-yl)-2-phenyl-4H-chromen-4-one] the pIC50 (HCT116 cells; [1]) was 5.42.
Compound `CN1CC[C@H](c2c(O)cc(O)c3c(=O)cc(-c4ccccc4Cl)oc23)[C@H](O)C1` [flavopiridol, reference compound] has a pIC50 (HCT116 cells; Homo sapiens, HCT-116, further evaluated after secondary screening (Table VIII), read-out: IC50 value) of roughly 6.89.
